The source of these data is US4898876A, “Benzoylpiperazine esters and a process for their production” (Kowa Co., Ltd., priority 1982, dated 1990).

The target of the assay is chymotrypsin (Bos taurus, UniProt P00766). Put plainly: Chymotrypsin inhibitive activity (method of Muramatsu et al., acetyl-L-tyrosine ethyl ester substrate, Hestrin Method). In kind it is biochemical. Particulars: pH 8.0 tris-hydrochloric acid buffer, 10 minutes preincubation, 30° C., 30 minutes, absorbance at 530 nm, read-out: Chymotrypsin inhibitive activity [50% inhibition concentration (M)]. On the procedure: A solution prepared by mixing 0.1 ml of a dimethylsulfoxide solution containing a compound to be tested, 0.1 ml of water and 0.1 ml of a buffer solution containing 10 ug/ml of chymotrypsin (0.1M tris-hydrochloric acid buffer solution, pH 8.0) was incubated for 10 minutes by the method of Muramatsu et al. [see The Journal of Biochemistry, 62, 408 (1967)]. 0.2 ml of a buffer solution containing 25 mM of an acetyl-L-tyrosine ethyl ester was mixed with the above-prepared solution and reacted at 30° C. for 30 minutes. The amount of the remaining substrate was determined by causing the same to develop color by the Hestrin Method and measuring the absorbance at 530 nm. For comparative purposes, use was made of tosylphenylalanine chloromethyl ketone which was known as a chymotrypsin inhibitor (Comparative Compound I).

Where a name gives a salt, the structure may show the parent alone.

Consider `CC(C)N1CCN(C(=O)c2ccc(OC(=O)C=C3c4ccccc4-c4ccccc43)cc2)CC1` [Example 2, 1-Isopropyl-4-[4-(9-fluorenylideneacetyloxy)benzoyl]piperazine], for which the IC50 amounted to 1e-07 M.

In the case of `CC(C)N1CCN(C(=O)c2ccc(OC(=O)CC3c4ccccc4-c4ccccc43)cc2)CC1` [Example 40], the IC50 came to 1e-06 M. Turning to `CC(C)N1CCN(C(=O)c2ccc(OC(=O)COc3ccc4ccccc4c3)cc2)CC1` [Example 30], the IC50 was found to be 9e-06 M. Regarding `CC(C)N1CCN(C(=O)c2ccc(OC(=O)CCc3ccc4ccccc4c3)cc2)CC1` [Example 32], the IC50 was found to be 7e-06 M. With `CC(C)N1CCN(C(=O)c2ccc(OC(=O)Cc3cccc4c3CCCC4)cc2)CC1` [Example 1, 1-Isopropyl-4-[4-(5,6,7,8-tetraphydronaphthalene-1-acetyloxy)benzoyl]piperazine.hydrochloride] the figure was 3e-06 M; with `CC(C)N1CCN(C(=O)c2ccc(OC(=O)CC3=CCCc4ccccc43)cc2)CC1` [Example 22], 3e-06 M; with `CC(C)N1CCN(C(=O)c2ccc(OC(=O)Cc3cccc4ccccc34)cc2)CC1` [Example 24], 5e-07 M. With `CC1CCC(C(=O)Oc2ccc(C(=O)N3CCN(C(C)C)CC3)cc2)c2ccccc21` (stereo not shown) [Example 15] the figure was 8e-07 M; with `COc1ccc2c(c1)C(C(=O)Oc1ccc(C(=O)N3CCN(C)CC3)cc1)CCC2` (stereo not shown) [Example 65, 1-Methyl-4-[4-(7-methoxyl-1,2,3,4-tetrahydro-1-naphtoyloxy)benzoyl]piperazine.methanesulfonate], 8e-07 M; with `CC(C)N1CCN(C(=O)c2ccc(OC(=O)Cc3cc4ccccc4s3)cc2)CC1` [Example 3], 9e-07 M.

Regarding `Cc1ccc2c(c1)CCCC2C(=O)Oc1ccc(C(=O)N2CCN(C(C)C)CC2)cc1` (stereo not shown) [Example 18], the IC50 turned out to be 6e-07 M. With `CC(C)N1CCN(C(=O)c2ccc(OC(=O)C3CCCc4ccccc43)cc2)CC1` (stereo not shown) [Example 67] the figure was 8e-07 M. With `CCN1CCN(C(=O)c2ccc(OC(=O)C3CCCc4ccccc43)cc2)CC1` (stereo not shown) [Example 68] the figure was 9e-07 M. With `CC(C)N1CCN(C(=O)c2ccc(OC(=O)C3CCCc4cc(Cl)ccc43)cc2)CC1` (stereo not shown) [Example 17] the figure was 8e-07 M; with `CC(C)N1CCN(C(=O)c2ccc(OC(=O)C3=Cc4ccccc4CC3)cc2)CC1` [Example 20], 5e-06 M; with `O=C(Oc1ccc(C(=O)N2CCN(C3CCCCC3)CC2)cc1)C1CCCc2ccccc21` (stereo not shown) [Example 66], 9e-07 M. On to `COc1ccc2c(c1)C(CC(=O)Oc1ccc(C(=O)N3CCN(C(C)C)CC3)cc1)=CC2` [Example 9], for which the IC50 amounted to 1e-06 M.

On to `CC(C)N1CCN(C(=O)c2ccc(OC(=O)C3CCc4ccccc43)cc2)CC1` (stereo not shown) [Example 4], for which the IC50 is 5e-06 M. Regarding `CC(C)N1CCN(C(=O)c2ccc(OC(=O)C3C=CCc4cc(Cl)ccc43)cc2)CC1` (stereo not shown) [Example 21], the IC50 came to 9e-06 M.
